Experimental data taken from patent publication US7723289B2, “PIF tetrapeptides” (BioIncept, LLC, priority 2003, dated 2010).

Tested on: PBMC
Experiment: PIF and analogues on release of cytokines +/- platebound mAbCD3 (Table 4)
Assay type: cell-based
Design: IL-1β / TNFa / IL-4 / IL-5 / IL-6 / IL-10 / GM-CSM / IFN-g: unit not given here

## MVRIK [sPIF-1(5)]
C- (platebound mAbCD3), /1
  GM-CSM: 26.8
  IFN-g: 98.2
  IL-1β: 10.7
  IL-2: 19.2
  IL-4: 16.93
  IL-5: 0
  IL-6: 221.8
  IL-8: >5000
  IL-10: 68.5
  TNFa: 142.8
C- (platebound mAbCD3), /50
  GM-CSM: 20.7
  IFN-g: 81.2
  IL-1β: 5.3
  IL-2: 20.0
  IL-4: 0
  IL-5: 0
  IL-6: 178.9
  IL-8: >5000
  IL-10: 57.2
  TNFa: 81.1
U- (no mAbCD3), /1
  GM-CSM: 0
  IFN-g: 0
  IL-1β: 0
  IL-2: 0
  IL-4: 0
  IL-5: 0
  IL-6: 28.9
  IL-8: 763.6
  IL-10: 0
  TNFa: 0
U- (no mAbCD3), /50
  GM-CSM: 0
  IFN-g: 0
  IL-1β: 0
  IL-2: 0
  IL-4: 0
  IL-5: 0
  IL-6: 37.6
  IL-8: 786.4
  IL-10: 0
  TNFa: 0
Following exposure to CD3Mab, dose dependent
  effect on cytokine secretion: mild

## PGSA [sPIF-1(4)]
C- (platebound mAbCD3), /1
  GM-CSM: 13.7
  IFN-g: 81.3
  IL-1β: 6.0
  IL-2: 24.0
  IL-4: 0
  IL-5: 0
  IL-6: 233.6
  IL-8: >5000
  IL-10: 44.1
  TNFa: 68.3
C- (platebound mAbCD3), /50
  GM-CSM: 27.3
  IFN-g: 145.4
  IL-1β: 7.3
  IL-2: 36.2
  IL-4: 17.8
  IL-5: 8.6
  IL-6: 270.1
  IL-8: >5000
  IL-10: 82.5
  TNFa: 299.9
U- (no mAbCD3), /1
  GM-CSM: 0
  IFN-g: 0
  IL-1β: 0
  IL-2: 0
  IL-4: 0
  IL-5: 0
  IL-6: 32.9
  IL-8: 809.3
  IL-10: 0
  TNFa: 0
U- (no mAbCD3), /50
  GM-CSM: 0
  IFN-g: 0
  IL-1β: 0
  IL-2: 0
  IL-4: 0
  IL-5: 0
  IL-6: 33.4
  IL-8: 1079.9
  IL-10: 0
  TNFa: 0
non-stimulated PBMC
  effect on IL6 and 8: stimulatory effect
